Starred links: 1 amine or outer side, 2 acyl side, 3 side chain; linkers in the order of their positions; H or OH if unused. Non-standard residues stand in square brackets, D forms with d. Residues, ends and D or L forms follow the SMILES beside them. Groups on a side chain read outwards from the residue. *: point of attachment. Ethylenediamine = C(CN[*:2])N[*:1]; Hyp = O=C(O)[C@@H]1C[C@@H](O)CN1; Phg = N[C@H](C(=O)O)c1ccccc1; CO = O=C([*:1])[*:2]; Bn = c1ccc(C*)cc1
Columns and labels:
Rac = Rac (Homo sapiens, UniProt P63000); conditions: cited from earlier work
E. coli K-12 MG1655 = experiment: Antibiotic potentiation primary screen in nanoliter droplet microwell array (GFP growth, Bliss score); format: cell-based, Escherichia coli; conditions: for Primary screening prediction of synergy with tetracycline: compound 100 μM x tetracycline; for Primary screening call, pilot phase: pilot phase of screen; for Interaction between Tedizolid and Pasireotide (relative GFP): each 100 μM, same microwell array, FIG. 34
Procedure: To perform the antibiotic potentiation screen, each microwell chip received droplets containing a total of 64 input conditions, with 32 held constant across all chips, and 32 that vary on each chip (FIG. 3F). The first 32, held fixed, consisted of 30 antibiotic conditions (10 antibiotics×3 concentrations, no cells), and 2 media controls (no cells). The second 32 consisted of 1-2 positive controls (sulbactam 20 μM, + cells; or erythromycin 5 μM, + cells), 1-2 negative blank controls (+ cells), 2-4 media controls (+ cells), and 24-28 variable compounds (100 μM, + cells). All conditions were in cation-adjusted Mueller Hinton broth media, 2% DMSO (all concentrations reported are final concentrations).
This setup allowed the screen to be performed in a divide-and-conquer format. The repurposing compound library is composed of 4,160 compounds across 52 96-well plates (80 compounds per plate, with controls in column 1 and 12). Each 96-well plate was divided into 3 groups of 32, each run on a separate chip but pooled with the same set of antibiotics-carrying droplets.
E. coli K-12 MG1655 with plasmid-mediated constitutive expression of GFP was prepared as described above, and added to all conditions described as “+ cells” just prior to emulsification. After loading, imaging, and merging, microwell arrays were incubated at 37° C. (static), and then later imaged again to measure growth by GFP fluorescence.
To estimate synergy between compounds and antibiotics, the Bliss Independence metric was used.
The net growth inhibition for antibiotic A from microwells carrying an antibiotic A (no cells) droplet, and a media (+ cells) droplet were estimated. The net growth inhibition of a screening compound from microwells carrying compound B (+ cells) droplet, and a media (no cells) droplet were also estimated. All growth values were normalized to microwells containing a pair of media (+ cells) and media (no cells) droplets, and estimated synergy using the Bliss Independence metric. Since each antibiotic was present at 3 concentrations, a metric was summed for the compound across each of the 3 conditions to yield a final metric called “Bliss Score.” Compounds with net growth inhibition exceeding 80% were removed from analysis.
To estimate the uncertainty in the Bliss Score measurement, all microwells in the array were bootstrap resampled (100 iterations) to the number of counted for each pair of inputs and recomputed Bliss Scores to estimate a sampling distribution and standard error.

[1] = tested on: Native AMPA/kainate receptors, interneurons; conditions: cited from earlier work
[2] = tested on: Native AMPA/kainate receptors, pyramidal neurons; conditions: cited from earlier work
[3] = tested on: recombinant, homomeric GluR1 and GluR3 receptors; conditions: cited from earlier work
[4] = molecular target: T1, receptors containing edited GluR2 subunits (Homo sapiens, UniProt P42262, Q607R); conditions: 100 microM compound; n=5 oocytes; Vh −80 mV; cited from earlier work
T1 construct: host or cells: Xenopus oocytes expressing recombinant receptors

[5] = 416 COPD patients; dry-powder inhaler; cited from earlier work
[6] = 12 weeks, cited from earlier work
[7] = year-long trial; cited from earlier work
[8] = cited from earlier work
somatostatin receptor 5 = somatostatin receptor 5 (Homo sapiens, UniProt P35346); conditions: cited from earlier work
P. aeruginosa = experiment: Checkerboard drug interaction assay ampicillin x sulbactam, 96-well broth culture vs microdroplet platform; format: cell-based, Pseudomonas aeruginosa
Excerpt: FIG. 27 is a graph of a comparison checkerboard assay between 96-well plates and microwell array platform. Comparison of checkerboard drug interaction assay in P. aeruginosa for ampicillin and a beta-lactamase inhibitor, sulbactam.

T1 sequence (P42262 25-883 Q607R): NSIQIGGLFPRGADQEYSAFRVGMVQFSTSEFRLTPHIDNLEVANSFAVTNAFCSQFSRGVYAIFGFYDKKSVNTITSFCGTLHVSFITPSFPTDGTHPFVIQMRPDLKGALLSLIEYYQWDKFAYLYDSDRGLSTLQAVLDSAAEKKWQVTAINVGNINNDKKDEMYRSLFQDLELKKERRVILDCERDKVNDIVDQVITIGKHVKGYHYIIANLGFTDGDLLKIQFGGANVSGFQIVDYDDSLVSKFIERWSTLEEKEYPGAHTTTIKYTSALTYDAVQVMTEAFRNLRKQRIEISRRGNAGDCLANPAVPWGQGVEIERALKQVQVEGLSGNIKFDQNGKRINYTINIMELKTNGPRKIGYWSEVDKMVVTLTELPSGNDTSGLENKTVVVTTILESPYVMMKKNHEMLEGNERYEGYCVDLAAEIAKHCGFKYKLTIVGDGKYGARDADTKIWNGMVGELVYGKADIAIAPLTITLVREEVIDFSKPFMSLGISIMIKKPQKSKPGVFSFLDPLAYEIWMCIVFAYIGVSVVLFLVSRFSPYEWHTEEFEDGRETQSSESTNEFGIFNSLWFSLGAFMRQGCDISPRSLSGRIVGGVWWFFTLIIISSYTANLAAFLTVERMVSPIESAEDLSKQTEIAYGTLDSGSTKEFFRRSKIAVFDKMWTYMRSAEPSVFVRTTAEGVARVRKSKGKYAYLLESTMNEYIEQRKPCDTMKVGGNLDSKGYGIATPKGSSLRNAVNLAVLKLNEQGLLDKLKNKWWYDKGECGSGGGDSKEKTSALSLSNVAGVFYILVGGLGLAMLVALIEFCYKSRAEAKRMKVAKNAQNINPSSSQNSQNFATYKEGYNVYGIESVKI
Sequence of somatostatin receptor 5 (P35346 whole entry): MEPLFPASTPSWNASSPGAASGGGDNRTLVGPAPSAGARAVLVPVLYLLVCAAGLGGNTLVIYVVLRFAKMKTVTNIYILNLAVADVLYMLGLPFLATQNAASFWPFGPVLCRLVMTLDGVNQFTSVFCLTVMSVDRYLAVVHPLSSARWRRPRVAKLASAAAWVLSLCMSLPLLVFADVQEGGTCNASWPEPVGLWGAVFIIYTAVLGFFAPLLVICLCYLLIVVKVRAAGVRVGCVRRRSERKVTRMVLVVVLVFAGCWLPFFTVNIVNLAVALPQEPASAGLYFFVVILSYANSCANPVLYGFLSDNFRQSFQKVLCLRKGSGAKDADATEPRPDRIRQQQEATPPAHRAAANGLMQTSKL

CCn1c2ccccc2c2cc(Nc3ccnc(NCCCN4CCOCC4)n3)ccc21 (racemic) [EHop-016]
more efficient inhibitor of Rac activity than NSC23766 (Rac): 100 fold

CCN(CC)CCCC(C)Nc1nc(C)cc(Nc2ccc3nc(C)cc(N)c3c2)n1.Cl.Cl.Cl (racemic) [NSC23766]
Primary screening prediction of synergy with novobiocin (E. coli K-12 MG1655; compound 100 μM x novobiocin, E. coli): synergy predicted
Primary screening prediction of synergy with tetracycline (E. coli K-12 MG1655; E. coli): no synergy predicted

O=C(CNC(=O)c1ccc(Cl)cc1)NO [Benurestat, 2-(para-chlorobenzamide)-acetohydroxamic acid]
Primary screening call with vancomycin (E. coli K-12 MG1655; compound 100 μM x vancomycin, E. coli): screening hit
Primary screening call, pilot phase (E. coli K-12 MG1655; E. coli): hit

Br.Br.NCCCCCNCC12CC3CC(CC(C3)C1)C2 [IEM 1754, 1-ammonio-5-(1-adamantane-methylammoniopentanedibromide)]
times less potent than IEM-1460 [1]: approximately 3 times
Primary screening prediction of synergy with tetracycline (E. coli K-12 MG1655; E. coli): predicted neutral
Primary screening call, pilot phase (E. coli K-12 MG1655; E. coli): hit
potency relative to IEM-1460 [2]: equipotent
times less potent than IEM-1460 ([3]; homomeric GluR1 and GluR3): 3.8 times

C[N+](C)(C)CCCCCNCC12CC3CC(CC(C3)C1)C2 [IEM-1460, 1-trimethylammonio-5-(1-adamantane-methyl-ammoniopentanedibromide)]
IC50 ([1]; Vh=−80 mV): 1.6 µM
IC50 ([2]; Vh=−80 mV): 1620 µM
inhibition of responses to 100 microM kainate [4]: 7.8+/−2.4%
IC50 ([3]; holding potential (Vh) of −80 mV, open channel block): 1.6 µM

CCc1cc2c(cc1CC)CC(NC[C@H](O)c1ccc(O)c3[nH]c(=O)ccc13)C2 [Indacaterol]
Primary screening call with erythromycin (E. coli K-12 MG1655; compound 100 μM x erythromycin, E. coli): screening hit
FEV1 (both trough and AUC) compared to placebo [5]: statistically improved
effect on FEV1 compared with tiotropium [6]: no statistical difference
St. George's Respiratory Questionnaire (SGRQ) total score ([6]; vs tiotropium): greater improvements
transition dyspnoea index (TDI) total score ([6]; vs tiotropium): greater improvements
improving FEV1 compared with twice-daily formoterol [7]: significantly more effective

C[C@@H](O)[C@@H]1NC(=O)[C@H](CCCCN)NC(=O)[C@@H](Cc2c[nH]c3ccccc23)NC(=O)[C@H](Cc2ccccc2)NC(=O)[C@@H](NC(=O)[C@H](N)Cc2ccccc2)CSSC[C@@H](C(=O)N[C@H](CO)[C@@H](C)O)NC1=O [Octreotide]
half-life [8]: 1.5 h

NCCCC[C@@H]1NC(=O)[C@@H](Cc2c[nH]c3ccccc23)NC(=O)[C@H](c2ccccc2)NC(=O)[C@@H]2C[C@@H](OC(=O)NCCN)CN2C(=O)[C@H](Cc2ccccc2)NC(=O)[C@H](Cc2ccc(OCc3ccccc3)cc2)NC1=O [Pasireotide, cyclo[{4-(NH2-C2H4-NH—CO—O-)Pro}-Phg-DTrp-Lys-Tyr(4-Bzl)-Phe]] (cyclo([Hyp]([CO-Ethylenediamine])[Phg][dW]KY(Bn)F))
Interaction between Tedizolid and Pasireotide (relative GFP) (E. coli K-12 MG1655): synergistic interaction
increased affinity to somatostatin receptor 5 compared to other somatostatin analogs (somatostatin receptor 5): 40 fold

Cn1nnc(-c2ccc(-c3ccc(N4C[C@H](CO)OC4=O)cc3F)cn2)n1 [Tedizolid]
Interaction between Tedizolid and Pasireotide (relative GFP) (E. coli K-12 MG1655): synergistic interaction

CC[C@H]1OC(=O)[C@H](C)[C@@H](O[C@H]2C[C@@](C)(OC)[C@@H](O)[C@H](C)O2)[C@H](C)[C@@H](O[C@@H]2O[C@H](C)C[C@H](N(C)C)[C@H]2O)[C@](C)(O)C[C@@H](C)C(=O)[C@H](C)[C@@H](O)[C@]1(C)O [erythromycin]
Bliss score with tetracycline (E. coli K-12 MG1655; positive control, expected value, erythromycin 5 μM x tetracycline, E. coli): ~ 0.5

CC1(C)[C@H](C(=O)O)N2C(=O)C[C@H]2S1(=O)=O [sulbactam]
Bliss score with ampicillin (E. coli K-12 MG1655; positive control, expected value, sulbactam 20 μM x ampicillin, E. coli): ~ 1
FIC with ampicillin (P. aeruginosa; 96-well broth culture): <= 0.5
FIC with ampicillin (P. aeruginosa; microdroplet platform): <= 0.3125

From patent US12673084B2, “Compositions and methods for combinatorial drug discovery in nanoliter droplets” (The Broad Institute, Inc., priority 2017, dated 2026)
